Measurements published in PMC12727497, “Inhibition of IRAK4 by microbial trimethylamine blunts metabolic inflammation and ameliorates glycemic control” (Nature Metabolism, 2025).

Biological target: interleukin-1 receptor-associated kinase 4 (IRAK4) (Homo sapiens, UniProt Q9NWZ3)
Assay: biochemical

Chain of interleukin-1 receptor-associated kinase 4 (IRAK4) (Q9NWZ3 whole entry): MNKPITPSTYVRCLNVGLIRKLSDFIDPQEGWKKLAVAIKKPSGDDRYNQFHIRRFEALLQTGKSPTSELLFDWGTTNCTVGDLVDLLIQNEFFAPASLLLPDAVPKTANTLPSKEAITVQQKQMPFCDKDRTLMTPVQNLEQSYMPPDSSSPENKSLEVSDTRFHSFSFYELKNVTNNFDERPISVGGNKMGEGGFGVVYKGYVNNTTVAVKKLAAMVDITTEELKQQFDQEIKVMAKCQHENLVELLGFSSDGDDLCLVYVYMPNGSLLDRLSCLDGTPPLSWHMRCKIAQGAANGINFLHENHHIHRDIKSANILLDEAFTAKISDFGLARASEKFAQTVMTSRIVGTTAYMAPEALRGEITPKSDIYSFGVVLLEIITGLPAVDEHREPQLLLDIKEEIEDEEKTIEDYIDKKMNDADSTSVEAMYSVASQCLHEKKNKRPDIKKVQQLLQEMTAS

Question: With `CN(C)C` [TMA, trimethylamine] as the compound, how does the Kd read?
Answer: 14 nM
